Legend:
BALB/c mice = assay: Antibody production after immunisation with TNP-KLH; format: in vivo; conditions: oral administration of 150 mg/kg, day 12
[1] = Observation of toxicity after administration to animals; format: in vivo, BALB/c mice
Description: The pharmaceutical molecule screening approach described herein represents a generic platform wherein the initial use of antibodies makes it possible to detect the domains of the target molecule having a therapeutic potential, thus facilitating the design of chemical molecules (via in silico and/or in vitro screening) capable acting as functional antibody mimics and as potential protein-protein interaction inhibitors.
Finally, to extend these observations to mast cell functions in vivo, the inventors tested the effects of C-13 on passive systemic (PSA) and cutaneous anaphylaxis (PCA) induced in BALB/c mice by administering DNP-specific IgE molecules followed by intravenous stimulation with DNP-KLH hapten. […] The intensity of systemic anaphylaxis was determined by measuring both the drop in body temperature and the increase in vascular permeability following antigen administration.

ERK1/2 = assay: MAP kinase activation: ERK1/2 phosphorylation level; format: cell-based; conditions: high C-13 concentration
Experimental: The association of SLP-76 with Vav and/or Nck plays a role in optimal MAP kinase activation in mast cells^27.
(§1) • 1) Chemical products and antibodies. A chemical bank of 3000 molecules (a varied subset) was acquired from ChemBridge, Inc. (San Diego, Calif.). Stocks of solutions of small molecules were prepared at a rate of 10 mM in DMSO (dimethylsulphoxide), except for C-13 (methyl 2-{5-[(3-benzyl-4-oxo-2-thioxo-1,3-thiazolidin-5-ylidene)methyl]-2-furyl}benzoate, ChemBridge ID No. 6197026) prepared in DMF (dimethylformamide). Unless specified otherwise, all the reagents were supplied by Sigma. Dinitrophenyl (DNP) hapten was acquired from Calbiochem. Sepharose GammaBind G and all the secondary antibodies were supplied by GE Health Amersham Biosciences. […] The binding of G4G11 with Syk was assessed by adding the 9E10 monoclonal antibody conjugated with HRP detecting the amino acid sequence EQKLISEEDLN of human c-myc protein located at the C-terminal end of the scFv fragment. To generate Syk mutants, targeted mutagenesis was used on GST:Syk 6-242 protein and the binding of G4G11 with the mutants was assessed in the presence of 5 μM of C-13. • 3) Cells, culture conditions and functional tests. […] The level of β-hexosaminidase released was measured 10 min later and the TNF-α titration was performed by means of a cytotoxicity test on L929 cells as described previously^10, 3 hours after stimulation. […]

PLC-γ with LAT = assay: Association of PLC-γ with LAT (immunoprecipitation); format: cell-based, rat; conditions: dose-dependent
Experimental: Binding of Btk and Vav with SLP-76 is critical for regulating PLC-γ activity on the membrane, calcium mobilisation and granule exocytosis^27, 28.
as §1, with “Calbiochem.” for “Calbiochem. Sepharose GammaBind G and all the secondary antibodies were supplied by GE Health Amersham Biosciences.”

COC(=O)c1ccccc1-c1ccc(/C=C2/SC(=S)N(Cc3ccccc3)C2=O)o1 [Molecule C-13, methyl 2-{5-[(3-benzyl-4-oxo-2-thioxo-1,3-thiazolidin-5-ylidene)methyl]-2-furyl}benzoate]
antibody responses of mice immunised with a thymus-dependent antigen (BALB/c mice): not affected | signs of toxicity in the animals ([1]; after oral administration, prior to antigen stimulation): no obvious sign of toxicity | apparent toxic effect ([1]; oral or local administration, one hour to 12 days): lack of an apparent toxic effect | phosphorylation level ERK1/2 (ERK1/2): reduces | association of PLC-γ with LAT (PLC-γ with LAT): inhibited

From US9504676B2, “Molecules inhibiting a metabolic pathway involving the Syk protein tyrosine kinase and method for identifying said molecules” (CENTRE NATIONAL DE LA RECHERCHE SCIENTIFIQUE, priority 2008, dated 2016)
